Assay [1] has as its system genotype 1a (H77) wild type transient HCV replicon in Huh-7-derived cells. Put plainly: Transient-transfected HCV replicon EC50, genotype 1a wild type. Type of assay: cell-based, hepatitis C virus. The note with it: 72 h, transient-transfected replicon genotype 1a wild type, read-out: EC50 1A WT. Background: Replicon systems follow genome replication, usually without infectious particles.

The subject of assay [2] is genotype 3a (S52) wild type transient HCV replicon in Huh-7-derived cells. In words: Transient-transfected HCV replicon EC50, genotype 3a wild type. The settings on record: transient-transfected replicon genotype 3a wild type, 72 h, read-out: EC50 3A WT. Type of assay: cell-based, hepatitis C virus.
The target in assay [3] is HCV NS3 protease domain genotype 1b (Hepatitis C virus genotype 1b (isolate Con1), UniProt Q9WMX2, E1202G). Put plainly: Ki determination, NS3 protease genotype 1b (fluorogenic depsipeptide substrate). The assay is classed as biochemical. The settings on record: 50 pM enzyme, NS4A peptide. How it is done:
Purified NS3 protease domain (amino acids 1-181) of the genotype 1b and 3a virus were generated as above.
Reactions were run at room temperature in buffer consisting of 50 mM HEPES, 40% glycerol, 0.05% Triton X-100, 10 mM DTT, and 10% DMSO. The final assay solutions contained 50 pM NS3 genotype 1 b protease or 200 pM genotype 3a protease, 20 μM NS4A peptide, and 4 μM substrate (genotype 1b) or 2 μM substrate (genotype 3a). Inhibitor concentrations varied from 100 nM to 5 pM in 3-fold dilutions, and no-inhibitor controls were included.
Compound dilutions were made in DMSO at 20× final concentration. Reaction mixtures were prepared in 96-well assay plates. A solution of enzyme and NS4A peptide in assay buffer (25 μL volume with both reagents at 4× final concentration) was mixed with 45 μL assay buffer and 5 μL of either inhibitor or DMSO, and pre-incubated at room temperature for 1 hour. The reaction was started by addition of 25 μL substrate solution at 4× final concentration. Plates were mixed vigorously for 5-10 seconds and reactions were allowed to proceed for 90 minutes, fluorescence was measured every 30 s between 90 and 120 minutes reaction time using a Tecan InfiniTe M1000 or PerkinElmer Envision multimode plate reader with an excitation wavelength of 340 nm and an emission wavelength of 490 nm.
To determine the Ki, rates were plotted as a function of inhibitor concentration, and the data were fit with equation 1 (Morrison, J. F., Biochimica et Biophysica Acta 1969, 185, 269-286) to calculate Ki^app using GraphPad Prism 5. […] Ki was calculated from Ki^app/(1+[[S]/Km]).

Assay [4] deals with genotype 1a (H77) stable HCV replicon in Huh-7-derived cells. In words: Stable subgenomic HCV replicon EC50, genotype 1a (Renilla luciferase). Type of assay: cell-based, hepatitis C virus. The settings on record: stable replicon genotype 1a, 72 h, read-out: EC50 1A RLUC. An outline of the steps:
(§1)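 Compounds, three-fold diluted, were applied to Huh-7-derived cells harbouring luciferase replicons (genotype 1a H77, 1b Con1, 2a JFH-1, 4a ED43, with strain-specific adaptive mutations). Seventy-two hours later, intracellular replication was gauged by Renilla luciferase activity and EC50 derived by regression.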

The subject of assay [5] is genotype 3a (S52) stable HCV replicon in Huh-7-derived cells. Put plainly: Stable subgenomic HCV replicon EC50, genotype 3a (Renilla luciferase). Type of assay: cell-based, hepatitis C virus. The settings on record: 72 h, read-out: EC50 3A RLUC.
The test system of assay [6] is genotype 1b (Con1) wild type transient HCV replicon in Huh-7-derived cells. In words: Transient-transfected HCV replicon EC50, genotype 1b wild type. Type of assay: cell-based, hepatitis C virus. The settings on record: 72 h, transient-transfected replicon genotype 1b wild type, read-out: EC50 1B WT.
Assay [7] has as its system genotype 1b (Con1) stable HCV replicon in Huh-7-derived cells. Put plainly: Stable subgenomic HCV replicon EC50, genotype 1b (Renilla luciferase). The settings on record: stable replicon genotype 1b, 72 h, read-out: EC50 1B RLUC. Type of assay: cell-based, hepatitis C virus. An outline of the steps:
as §1

Assay [8] concerns genotype 2a (JFH-1) stable HCV replicon in Huh-7-derived cells. Put plainly: Stable subgenomic HCV replicon EC50, genotype 2a (Renilla luciferase). Type of assay: cell-based, hepatitis C virus. The settings on record: stable replicon genotype 2a, 72 h, read-out: EC50 2A RLUC. The gist of the method: as §1
The target in assay [9] is HCV NS3 protease domain genotype 3a (Hepatitis C virus genotype 3a, UniProt Q81258). Put plainly: Ki determination, NS3 protease genotype 3a (fluorogenic depsipeptide substrate). Type of assay: biochemical. The note with it: 200 pM enzyme, NS4A peptide. The gist of the method:
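The NS3 protease domain (aa 1-181) with 20 μM NS4A peptide was used at 50 pM with 4 μM substrate (1b) or at 200 pM with 2 μM substrate (3a). Inhibitors (100 nM-5 pM) were pre-incubated 1 h at room temperature in HEPES/glycerol/DTT buffer with 10% DMSO. Steady-state rates (90-120 min) gave Ki via the Morrison equation, corrected for active enzyme and [S]/Km.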

The subject of assay [10] is genotype 4a (ED43) stable HCV replicon in Huh-7-derived cells. Put plainly: Stable subgenomic HCV replicon EC50, genotype 4a (Renilla luciferase). The assay is classed as cell-based, hepatitis C virus. The settings on record: 72 h, read-out: EC50 4A RLUC. The gist of the method: as §1
Assay [11] concerns genotype 1a NS3/4a protease inhibitor resistant variant R155K transient HCV replicon in Huh-7-derived cells. Put plainly: Transient-transfected HCV replicon EC50, genotype 1a R155K. The assay is classed as cell-based, hepatitis C virus. The note with it: 72 h.
Assay [12] deals with genotype 1b NS3/4a protease inhibitor resistant variant D168A transient HCV replicon in Huh-7-derived cells. Put plainly: Transient-transfected HCV replicon EC50, genotype 1b D168A. The assay is classed as cell-based, hepatitis C virus. The settings on record: 72 h.
[13] abbreviates: Hepatitis C virus, read-out: EC50 1A R155K, transient-transfected replicon genotype 1a R155K resistant variant, 72 h.
[14] abbreviates: Hepatitis C virus, read-out: EC50 1B D168A, transient-transfected replicon genotype 1b D168A resistant variant, 72 h.
The mark [15] stands for this setting: stable replicon genotype 3a, Renilla luciferase.
Where [16] appears, read: stable replicon genotype 4a, Renilla luciferase.
The mark [17] stands for this setting: transient-transfected replicon genotype 1a R155K resistant variant, read-out: EC50 1A R155K.

Where two headings read alike, the source gives them in different places.

We go through five molecules from patent US10335409B2 (priority 2012, dated 2019).

Sequence of HCV NS3 protease domain genotype 1b (Q9WMX2 1027-1208 E1202G): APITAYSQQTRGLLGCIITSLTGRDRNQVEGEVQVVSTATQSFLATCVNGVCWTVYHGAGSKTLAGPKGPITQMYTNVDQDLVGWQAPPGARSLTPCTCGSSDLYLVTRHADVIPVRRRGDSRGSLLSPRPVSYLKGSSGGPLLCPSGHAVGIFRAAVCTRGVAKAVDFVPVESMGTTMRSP
Sequence of HCV NS3 protease domain genotype 3a (Q81258 whole entry, looked up, the tested form may be a part): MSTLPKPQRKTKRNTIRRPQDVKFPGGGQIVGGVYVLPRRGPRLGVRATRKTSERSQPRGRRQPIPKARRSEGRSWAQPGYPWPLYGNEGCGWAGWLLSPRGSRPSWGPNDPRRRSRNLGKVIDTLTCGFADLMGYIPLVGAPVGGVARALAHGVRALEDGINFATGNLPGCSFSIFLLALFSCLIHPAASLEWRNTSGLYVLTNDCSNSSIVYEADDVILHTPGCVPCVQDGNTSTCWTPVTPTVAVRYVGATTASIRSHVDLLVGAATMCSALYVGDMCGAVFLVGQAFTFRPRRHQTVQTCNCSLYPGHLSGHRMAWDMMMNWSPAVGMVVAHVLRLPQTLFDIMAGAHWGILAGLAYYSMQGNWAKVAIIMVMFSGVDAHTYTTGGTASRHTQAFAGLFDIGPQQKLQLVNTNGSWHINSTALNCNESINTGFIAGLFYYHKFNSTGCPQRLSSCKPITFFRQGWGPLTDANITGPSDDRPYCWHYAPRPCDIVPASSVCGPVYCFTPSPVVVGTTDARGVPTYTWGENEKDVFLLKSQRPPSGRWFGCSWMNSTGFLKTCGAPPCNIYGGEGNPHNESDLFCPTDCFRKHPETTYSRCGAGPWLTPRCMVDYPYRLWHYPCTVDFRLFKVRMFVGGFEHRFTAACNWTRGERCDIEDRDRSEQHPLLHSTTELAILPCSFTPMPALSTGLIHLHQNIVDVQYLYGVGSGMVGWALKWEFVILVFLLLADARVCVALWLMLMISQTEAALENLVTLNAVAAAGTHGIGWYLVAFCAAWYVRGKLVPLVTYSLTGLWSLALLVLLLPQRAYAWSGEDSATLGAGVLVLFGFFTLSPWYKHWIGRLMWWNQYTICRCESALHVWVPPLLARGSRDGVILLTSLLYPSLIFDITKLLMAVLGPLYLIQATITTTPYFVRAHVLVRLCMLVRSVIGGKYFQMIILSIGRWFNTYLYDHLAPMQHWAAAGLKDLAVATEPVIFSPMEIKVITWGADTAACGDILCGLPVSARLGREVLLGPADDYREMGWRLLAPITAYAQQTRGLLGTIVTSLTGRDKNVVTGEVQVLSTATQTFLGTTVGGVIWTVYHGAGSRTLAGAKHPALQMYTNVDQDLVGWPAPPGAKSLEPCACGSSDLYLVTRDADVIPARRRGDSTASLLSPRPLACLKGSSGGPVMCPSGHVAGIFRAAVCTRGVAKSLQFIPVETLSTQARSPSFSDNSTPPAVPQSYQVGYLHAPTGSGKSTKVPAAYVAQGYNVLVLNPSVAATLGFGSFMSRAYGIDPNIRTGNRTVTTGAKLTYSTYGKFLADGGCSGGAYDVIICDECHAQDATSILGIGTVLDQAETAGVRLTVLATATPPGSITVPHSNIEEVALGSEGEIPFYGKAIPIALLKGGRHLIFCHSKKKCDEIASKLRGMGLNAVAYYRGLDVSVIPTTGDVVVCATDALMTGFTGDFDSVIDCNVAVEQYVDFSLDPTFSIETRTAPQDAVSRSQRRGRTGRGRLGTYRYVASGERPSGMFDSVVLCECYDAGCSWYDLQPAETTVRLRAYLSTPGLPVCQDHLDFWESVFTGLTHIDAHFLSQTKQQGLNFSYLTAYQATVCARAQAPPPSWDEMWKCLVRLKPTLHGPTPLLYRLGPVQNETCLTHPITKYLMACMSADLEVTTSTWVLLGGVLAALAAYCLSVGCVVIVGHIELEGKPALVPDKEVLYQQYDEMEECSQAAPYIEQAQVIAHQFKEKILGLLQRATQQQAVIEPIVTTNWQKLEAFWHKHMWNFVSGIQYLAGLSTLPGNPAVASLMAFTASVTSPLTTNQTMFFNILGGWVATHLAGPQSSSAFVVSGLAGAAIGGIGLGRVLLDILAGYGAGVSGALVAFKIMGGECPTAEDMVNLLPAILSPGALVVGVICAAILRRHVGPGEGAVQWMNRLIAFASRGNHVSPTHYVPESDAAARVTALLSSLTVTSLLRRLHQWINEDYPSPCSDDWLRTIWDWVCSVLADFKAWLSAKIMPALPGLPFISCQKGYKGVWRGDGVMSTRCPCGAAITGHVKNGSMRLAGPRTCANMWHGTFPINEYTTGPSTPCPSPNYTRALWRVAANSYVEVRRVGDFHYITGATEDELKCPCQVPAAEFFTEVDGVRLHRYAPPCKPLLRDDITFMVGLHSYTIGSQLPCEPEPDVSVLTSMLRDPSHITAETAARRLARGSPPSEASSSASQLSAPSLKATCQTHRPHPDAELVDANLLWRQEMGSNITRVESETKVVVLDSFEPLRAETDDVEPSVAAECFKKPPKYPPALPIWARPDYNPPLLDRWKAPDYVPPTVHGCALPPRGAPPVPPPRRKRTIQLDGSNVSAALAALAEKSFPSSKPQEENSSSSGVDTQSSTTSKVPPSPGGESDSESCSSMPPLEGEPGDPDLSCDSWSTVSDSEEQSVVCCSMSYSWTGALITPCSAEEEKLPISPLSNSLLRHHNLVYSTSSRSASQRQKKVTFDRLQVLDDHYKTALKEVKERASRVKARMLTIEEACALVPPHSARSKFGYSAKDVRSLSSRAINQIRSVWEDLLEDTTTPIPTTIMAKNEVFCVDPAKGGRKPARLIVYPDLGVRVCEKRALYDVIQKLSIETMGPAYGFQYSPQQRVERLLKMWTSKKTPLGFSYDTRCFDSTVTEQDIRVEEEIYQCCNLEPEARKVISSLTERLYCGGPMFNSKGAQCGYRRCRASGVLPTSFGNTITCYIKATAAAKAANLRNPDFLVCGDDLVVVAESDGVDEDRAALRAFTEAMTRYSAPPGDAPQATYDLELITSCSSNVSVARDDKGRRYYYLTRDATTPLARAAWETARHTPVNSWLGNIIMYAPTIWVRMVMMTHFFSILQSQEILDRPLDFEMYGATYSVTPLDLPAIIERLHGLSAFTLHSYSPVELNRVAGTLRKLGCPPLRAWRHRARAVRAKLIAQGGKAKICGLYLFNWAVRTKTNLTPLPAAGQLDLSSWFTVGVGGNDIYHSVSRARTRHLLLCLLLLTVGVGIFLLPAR

In general, EC50 refers to the concentration that produces a half-maximal response. By Ki is commonly meant the dissociation constant of the complex between target and ligand, obtained from inhibition or displacement. Higher therefore signals a looser hold on the target. As for `C[C@@H]1[C@@H]2CN(C(=O)[C@H](C(C)(C)C)NC(=O)O[C@@H]3C[C@@H]4C[C@@H]4[C@H]3CCCCCc3nc4ccc(F)cc4nc3O2)[C@@H]1C(=O)N[C@]1(C(=O)NS(=O)(=O)C2(C)CC2)C[C@H]1C(F)F` [Example 86, (1aS,2aR,6S,9S,10S,11R,23aR,23bS)-6-tert-butyl-N-[(1R,2R)-2-(difluoromethyl)-1-{[(1-methylcyclopropyl)sulfonyl]carbamoyl}cyclopropyl]-15-fluoro-10-methyl-4,7-dioxo-1a,2,2a,4,5,6,7,10,11,19,20,21,22,23,23a,23b-hexadecahydro-1H,9H-8,11-methanocyclopropa[4′,5′]cyclopenta[1′,2′:18,19][1,10,3,6]dioxadiazacyclononadecino[11,12-b]quinoxaline-9-carboxamide], the EC50 in assay [1] (Hepatitis C virus) worked out at 4 nM; in assay [2] (Hepatitis C virus), 16 nM; in [4] (Hepatitis C virus), 5.6 nM; in assay [5] (Hepatitis C virus), 42 nM; in [6] (Hepatitis C virus), 3.4 nM; in assay [7] (Hepatitis C virus), 5.5 nM. Further, the EC50 in [8] (Hepatitis C virus) was found to be 5.9 nM; in [10] (Hepatitis C virus), 5.7 nM; in assay [11] (setting [13]), 3.7 nM; in assay [12] (setting [14]) it was 10 nM. Further, the Ki stood at 0.04 nM in assay [3] and 0.07 nM in assay [9].
Consider `COc1ccc2nc3c(nc2c1)O[C@H]1CN(C(=O)[C@H](C(C)(C)C)NC(=O)O[C@@H]2C[C@@H]4C[C@@H]4[C@H]2CCCCC3(F)F)[C@H](C(=O)N[C@]2(C(=O)NS(=O)(=O)C3CC3)C[C@H]2C(F)F)[C@@H]1C` [Example 62, (1aS,2aR,6S,9S,10S,11R,23aR,23bS)-6-tert-butyl-N-[(1R,2R)-1-[(cyclopropylsulfonyl)carbamoyl]-2-(difluoromethyl)cyclopropyl]-19,19-difluoro-15-methoxy-10-methyl-4,7-dioxo-1a,2,2a,4,5,6,7,10,11,19,20,21,22,23,23a,23b-hexadecahydro-1H,9H-8,11-methanocyclopropa[4′,5′]cyclopenta[1′,2′:18,19][1,10,3,6]dioxadiazacyclononadecino[11,12-b]quinoxaline-9-carboxamide], for which the EC50 is 3.5 nM in assay [1] (Hepatitis C virus); 4 nM in [2] (Hepatitis C virus); 3.4 nM in assay [4] (Hepatitis C virus); 8.5 nM in assay [5] (Hepatitis C virus); 1.5 nM in assay [6] (Hepatitis C virus); 3 nM in assay [7] (Hepatitis C virus). Besides, the concentration for a half-maximal effect (EC50) in assay [8] (Hepatitis C virus) is 5 nM; in assay [10] (Hepatitis C virus), 2.4 nM; in [11] (setting [13]), 2.7 nM; in assay [12] (setting [14]) it was 2 nM. The Ki in assay [3] was 0.04 nM; in [9] it was 0.03 nM.
`CC[C@@H]1[C@@H]2CN(C(=O)[C@H](C(C)(C)C)NC(=O)O[C@@H]3C[C@H]3CCCCC(F)(F)c3nc4ccc(OC(F)(F)F)cc4nc3O2)[C@@H]1C(=O)N[C@]1(C(=O)NS(=O)(=O)C2(C)CC2)C[C@H]1C(F)F` [Example 83, (1aR,5S,8S,9S,10R,22aR)-5-tert-butyl-N-[(1R,2R)-2-(difluoromethyl)-1-{[(1-methylcyclopropyl)sulfonyl]carbamoyl}cyclopropyl]-9-ethyl-18,18-difluoro-3,6-dioxo-14-(trifluoromethoxy)-1,1a,3,4,5,6,9,10,18,19,20,21,22,22a-tetradecahydro-8H-7,10-methanocyclopropa[18,19][1,10,3,6]dioxadiazacyclononadecino[11,12-b]quinoxaline-8-carboxamide]: the concentration for a half-maximal effect (EC50) stood at 62 nM in assay [1] (Hepatitis C virus); 300 nM in [2] (Hepatitis C virus); 62 nM in [4] (Hepatitis C virus); 1220 nM in assay [5] (Hepatitis C virus); 27 nM in [6] (Hepatitis C virus); 58 nM in [7] (Hepatitis C virus). Also, the EC50 was found to be 19 nM in assay [8] (Hepatitis C virus), 42 nM in [10] (Hepatitis C virus), 133 nM in assay [11] (setting [13]) and 202 nM in [12] (setting [14]). In addition, the Ki in assay [3] was determined as 0.09 nM; in assay [9], 0.48 nM.
In the case of “(1aR,5S,8S,9S,10R,22aR)-5-tert-butyl-N-[(1R,2R)-2-(difluoromethyl)-1-{[(1-methylcyclopropyl)sulfonyl]carbamoyl}cyclopropyl]-8-fluoro-14-methoxy-9-methyl-3,6-dioxo-1,1a,3,4,5,6,9,10,18,19,20,21,22,22a-tetradecahydro-8H-7,10-methanocyclopropa[18,19][1,10,3,6]dioxadiazacyclononadecino[1,12-b]quinoxaline-8-carboxamide [Example 47]”, the EC50 in assay [1] worked out at 5.4 nM; in assay [2], 17 nM; in assay [4] it was 3.8 nM; in assay [5] (setting [15]) it was 58 nM; in [6], 2 nM; in assay [7], 3.6 nM. In addition, the results for the EC50 in assay [8], in [10] (setting [16]) and in assay [11] (setting [17]) were 12 nM, 4.2 nM and 6.1 nM, respectively. Also, the Ki in assay [3] came to 0.07 nM; in assay [9] it was 0.19 nM.
As for `COc1ccc2nc3c(nc2c1)O[C@H]1CN(C(=O)[C@H](C(C)(C)C)NC(=O)O[C@@H]2C[C@H]2CCCCC3)[C@H](C(=O)N[C@]2(C(=O)NS(=O)(=O)C3(C)CC3)C[C@H]2C(F)F)[C@@H]1C1CC1` [Example 31, (1aR,5S,8S,9S,10R,22aR)-5-tert-butyl-9-cyclopropyl-N-[(1R,2R)-2-(difluoromethyl)-1-{[(1-methylcyclopropyl)sulfonyl]carbamoyl}cyclopropyl]-14-methoxy-3,6-dioxo-1,1a,3,4,5,6,9,10,18,19,20,21,22,22a-tetradecahydro-8H-7,10-methanocyclopropa[18,19][1,10,3,6]dioxadiazacyclononadecino[11,12-b]quinoxaline-8-carboxamide], the EC50 in assay [1] came out at 27 nM; in assay [4], 40 nM; in [5] (setting [15]), 2070 nM; in [6], 6.6 nM; in assay [7] it was 18 nM; in assay [8], 63 nM. Besides, the EC50 was determined as 20 nM in assay [10] (setting [16]); 154 nM in [11] (setting [17]); 805 nM in assay [12] (transient-transfected replicon genotype 1b D168A resistant variant, read-out: EC50 1B D168A). The Ki came out at 0.13 nM in assay [3] and 4.9 nM in [9].
